These results are taken from patent publication US20240190880A1 (THE REGENTS OF THE UNIVERSITY OF MICHIGAN, priority 2021, published 2024).

Bounds are passed on as bounds.

The first test has as its target T1, ER (Homo sapiens, UniProt P03372).
T1 construct: host or cells: T47D and MCF7 human breast cancer cells
T1 sequence (P03372 1-595): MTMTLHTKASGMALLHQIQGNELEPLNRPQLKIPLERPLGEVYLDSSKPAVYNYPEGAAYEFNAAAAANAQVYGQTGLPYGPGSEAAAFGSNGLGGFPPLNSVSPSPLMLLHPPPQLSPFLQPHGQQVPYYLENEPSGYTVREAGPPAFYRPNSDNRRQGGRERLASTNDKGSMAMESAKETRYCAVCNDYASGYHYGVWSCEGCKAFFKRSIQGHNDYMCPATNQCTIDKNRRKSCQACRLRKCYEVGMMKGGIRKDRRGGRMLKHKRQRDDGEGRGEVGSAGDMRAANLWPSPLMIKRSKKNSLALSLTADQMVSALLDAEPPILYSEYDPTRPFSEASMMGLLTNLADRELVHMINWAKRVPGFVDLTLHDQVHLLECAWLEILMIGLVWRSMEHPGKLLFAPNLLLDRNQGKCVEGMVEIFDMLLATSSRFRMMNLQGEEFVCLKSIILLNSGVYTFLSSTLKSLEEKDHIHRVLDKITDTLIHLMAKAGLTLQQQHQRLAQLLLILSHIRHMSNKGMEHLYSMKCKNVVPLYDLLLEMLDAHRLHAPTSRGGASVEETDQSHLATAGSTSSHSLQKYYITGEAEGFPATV
Nature of the test: ER degradation activity, in-cell western blot analysis in T47D cells. Type of test: cell-based. Conditions: 16 hours, Table A does not say which cell line (T47D or MCF7), read-out: Potency (DC50). The method in brief: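 Human T47D cells (DMEM, 10% FBS) are dosed for 16 h with 0.5% DMSO final and probed with 680- and 800-dye secondary antibodies. Relative ER is calculated against vehicle and untreated wells.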
In the case of `C[C@@H]1Cc2c([nH]c3ccccc23)[C@@H](c2c(F)cc(N3CCC4(CC3)CN(CC3Cc5cc6c(cc5C3)C(=O)N(C3CCC(=O)NC3=O)C6=O)C4)cc2F)N1CC(F)F` (stereo partly drawn) [E 232, 6-((7-(4-((1R,3R)-2-(2,2-difluoroethyl)-3-methyl-2,3,4,9-tetrahydro-1H-pyrido[3,4-b]indol-1-yl)-3,5-difluorophenyl)-2,7-diazaspiro[3.5]nonan-2-yl)methyl)-2-(2,6-dioxopiperidin-3-yl)-6,7-dihydrocyclopenta[f]isoindole-1,3(2H,5H)-dione], the DC50 was more than 100 nM.
The same measure, in the same setting: to `C[C@@H]1Cc2c([nH]c3ccccc23)[C@@H](c2c(F)cc(N3CC(C(=O)N4CCC(CN5Cc6cc7c(cc6C5)C(=O)N(C5CCC(=O)NC5=O)C7=O)CC4)C3)cc2F)N1CC(F)F` (stereo partly drawn) [E 216, 6-((1-(1-(4-((1R,3R)-2-(2,2-difluoroethyl)-3-methyl-2,3,4,9-tetrahydro-1H-pyrido[3,4-b]indol-1-yl)-3,5-difluorophenyl)azetidine-3-carbonyl)piperidin-4-yl)methyl)-2-(2,6-dioxopiperidin-3-yl)-6,7-dihydropyrrolo[3,4-f]isoindole-1,3(2H,5H)-dione] belongs less than 10 nM; to `C[C@@H]1Cc2c([nH]c3ccccc23)[C@@H](c2c(F)cc(N3CC4(CN(C(=O)CN5Cc6cc7c(cc6C5)C(=O)N(C5CCC(=O)NC5=O)C7)C4)C3)cc2F)N1CC(F)F` (stereo partly drawn) [E 71, 3-(6-(2-(6-(4-((1R,3R)-2-(2,2-difluoroethyl)-3-methyl-2,3,4,9-tetrahydro-1H-pyrido[3,4-b]indol-1-yl)-3,5-difluorophenyl)-2,6-diazaspiro[3.3]heptan-2-yl)-2-oxoethyl)-1-oxo-3,5,6,7-tetrahydropyrrolo[3,4-f]isoindol-2(1H)-yl)piperidine-2,6-dione], less than 10 nM.
Same read-out and setting: the same measure for `CN(CC1CN(c2ccc([C@@H]3c4ccc(O)cc4CC[C@@H]3c3ccccc3)cc2)C1)C1CCC(N2Cc3cc4c(cc3C2)C(=O)N(C2CCC(=O)NC2=O)C4=O)CC1` (stereo partly drawn) [E333, 2-(2,6-dioxopiperidin-3-yl)-6-(4-(((1-(4-((1R,2S)-6-hydroxy-2-phenyl-1,2,3,4-tetrahydronaphthalen-1-yl)phenyl)azetidin-3-yl)methyl)(methyl)amino)cyclohexyl)-6,7-dihydropyrrolo[3,4-f]isoindole-1,3(2H,5H)-dione]: more than 100 nM; for `O=C1CCC(N2C(=O)c3cc4c(cc3C2=O)CN(Cc2cnc(N3CC(Oc5ccc([C@@H]6c7ccc(O)cc7CC[C@@H]6c6ccccc6)cc5)C3)nc2)C4)C(=O)N1` (stereo partly drawn) [E330, 2-(2,6-dioxopiperidin-3-yl)-6-((2-(3-(4-((1R,2S)-6-hydroxy-2-phenyl-1,2,3,4-tetrahydronaphthalen-1-yl)phenoxy)azetidin-1-yl)pyrimidin-5-yl)methyl)-6,7-dihydropyrrolo[3,4-f]isoindole-1,3(2H,5H)-dione]: more than 100 nM; for `C[C@@H]1Cc2c([nH]c3ccccc23)[C@@H](c2c(F)cc(N3CC[C@@H](CN4CCC(C(=O)N5Cc6cc7c(cc6C5)C(=O)N(C5CCC(=O)NC5=O)C7)CC4)C3)cc2F)N1CC(F)F` (stereo partly drawn) [E 90, 3-(6-(1-(((S)-1-(4-((1R,3R)-2-(2,2-difluoroethyl)-3-methyl-2,3,4,9-tetrahydro-1H-pyrido[3,4-b]indol-1-yl)-3,5-difluorophenyl)pyrrolidin-3-yl)methyl)piperidine-4-carbonyl)-1-oxo-3,5,6,7-tetrahydropyrrolo[3,4-f]isoindol-2(1H)-yl)piperidine-2,6-dione]: less than 10 nM.
For the molecule `C[C@H]1CC2(CCN(C(=O)CN3Cc4cc5c(cc4C3)C(=O)N(C3CCC(=O)NC3=O)C5=O)CC2)CN1c1ccc([C@@H]2c3ccc(O)cc3CC[C@@H]2c2ccccc2)cc1` (mixture of isomers) [E 143, Rac-2-(2,6-dioxopiperidin-3-yl)-6-(2-((S)-2-(4-((1R,2S)-6-hydroxy-2-phenyl-1,2,3,4-tetrahydronaphthalen-1-yl)phenyl)-3-methyl-2,8-diazaspiro[4.5]decan-8-yl)-2-oxoethyl)-6,7-dihydropyrrolo[3,4-f]isoindole-1,3(2H,5H)-dione], the DC50 is 10 to 100 nM.
With `O=C1CCC(N2C(=O)c3cc4c(cc3C2=O)CN(C(=O)CN2CCC3(CC2)CCN(c2ccc([C@@H]5c6ccc(O)cc6CC[C@@H]5c5ccccc5)cc2)CC3)CC4)C(=O)N1` (mixture of isomers) [E 161, rac-2-(2,6-dioxopiperidin-3-yl)-6-(2-(9-(4-((1R,2S)-6-hydroxy-2-phenyl-1,2,3,4-tetrahydronaphthalen-1-yl)phenyl)-3,9-diazaspiro[5.5]undecan-3-yl)acetyl)-5,6,7,8-tetrahydro-1H-pyrrolo[3,4-g]isoquinoline-1,3(2H)-dione], the DC50 is more than 100 nM.
On to `O=C1CCC(N2C(=O)c3cc4c(cc3C2=O)CN(C(=O)[C@H]2CC[C@@H](N3CC(Oc5ccc([C@H]6c7ccc(O)cc7CC[C@H]6c6ccccc6)cc5)C3)CC2)C4)C(=O)N1` (stereo partly drawn) [E 389, 2-(2,6-dioxopiperidin-3-yl)-6-((1R,4s)-4-(3-(4-((1S,2R)-6-hydroxy-2-phenyl-1,2,3,4-tetrahydronaphthalen-1-yl)phenoxy)azetidin-1-yl)cyclohexane-1-carbonyl)-6,7-dihydropyrrolo[3,4-f]isoindole-1,3(2H,5H)-dione], for which the half-maximal degradation concentration (DC50) is more than 100 nM.
In the case of `O=C1CCC(N2C(=O)c3cc4c(cc3C2=O)CN(CC2CCN(C(=O)C3CCN(c5ccc([C@@H]6c7ccc(O)cc7CC[C@@H]6c6ccccc6)cc5)CC3)CC2)C4)C(=O)N1` (stereo partly drawn) [E 204, 2-(2,6-dioxopiperidin-3-yl)-6-((1-(1-(4-((1R,2S)-6-hydroxy-2-phenyl-1,2,3,4-tetrahydronaphthalen-1-yl)phenyl)piperidine-4-carbonyl)piperidin-4-yl)methyl)-6,7-dihydropyrrolo[3,4-f]isoindole-1,3(2H,5H)-dione], the half-maximal degradation concentration (DC50) was in the range of 10 to 100 nM.
Regarding `O=C1CCC(N2C(=O)c3cc4c(cc3C2=O)CN(C(=O)CN2CC3(CCN(c5ccc([C@@H]6c7ccc(O)cc7CC[C@@H]6c6ccccc6)cc5)CC3)C2)CCC4)C(=O)N1` (mixture of isomers) [E 168, rac-2-(2,6-dioxopiperidin-3-yl)-6-(2-(7-(4-((1R,2S)-6-hydroxy-2-phenyl-1,2,3,4-tetrahydronaphthalen-1-yl)phenyl)-2,7-diazaspiro[3.5]nonan-2-yl)acetyl)-6,7,8,9-tetrahydroazepino[3,4-f]isoindole-1,3(2H,5H)-dione], the DC50 was more than 100 nM.
Same read-out and setting: the same measure for `O=C1CCC(N2C(=O)c3cc4c(cc3C2=O)CN(C(=O)CN2CCC3(CC2)CCN(c2ccc([C@@H]5c6ccc(O)cc6CC[C@@H]5c5ccccc5)cc2F)C3)C4)C(=O)N1` (mixture of isomers) [E 154, Rac-2-(2,6-dioxopiperidin-3-yl)-6-(2-(2-(2-fluoro-4-((1R,2S)-6-hydroxy-2-phenyl-1,2,3,4-tetrahydronaphthalen-1-yl)phenyl)-2,8-diazaspiro[4.5]decan-8-yl)acetyl)-6,7-dihydropyrrolo[3,4-f]isoindole-1,3(2H,5H)-dione]: more than 100 nM.
Regarding `O=C1CCC(N2C(=O)c3cc4c(cc3C2=O)CN(CC(=O)N2CC3(C2)CN(c2ccc([C@@H]5c6ccc(O)cc6CC[C@@H]5c5ccc(F)cc5)cc2)C3)C4)C(=O)N1` (mixture of isomers) [E 18, Rac-2-(2,6-dioxopiperidin-3-yl)-6-(2-(6-(4-((1R,2S)-2-(4-fluorophenyl)-6-hydroxy-1,2,3,4-tetrahydronaphthalen-1-yl)phenyl)-2,6-diazaspiro[3.3]heptan-2-yl)-2-oxoethyl)-6,7-dihydropyrrolo[3,4-f]isoindole-1,3(2H,5H)-dione], the 50% degradation concentration (DC50) lay in the range of 10 to 100 nM.

Staying with this test, now noted: compounds 16 hours, Table A does not say whether T47D or MCF7, read-out: Potency (DC50).
As to `C[C@@H]1Cc2cc(O)ccc2[C@@H](c2c(F)cc(C3CCC(C(=O)N4CCC(N5Cc6cc7c(cc6C5)C(=O)N(C5CCC(=O)NC5=O)C7=O)CC4)CC3)cc2F)N1CC(F)F` (stereo partly drawn) [E 487, 6-(1-(4-(4-((1S,3R)-2-(2,2-difluoroethyl)-6-hydroxy-3-methyl-1,2,3,4-tetrahydroisoquinolin-1-yl)-3,5-difluorophenyl)cyclohexane-1-carbonyl)piperidin-4-yl)-2-(2,6-dioxopiperidin-3-yl)-6,7-dihydropyrrolo[3,4-f]isoindole-1,3(2H,5H)-dione], the DC50 is 10 to 100 nM.
Same read-out and setting: to `C[C@@H]1Cc2c([nH]c3ccccc23)[C@@H](c2c(F)cc(C3=CCC4(CC3)CCN(C(=O)CN3Cc5cc6c(cc5C3)C(=O)N(C3CCC(=O)NC3=O)C6=O)CC4)cc2F)N1CC(F)F` (stereo partly drawn) [E 476, 6-(2-(9-(4-((1R,3R)-2-(2,2-difluoroethyl)-3-methyl-2,3,4,9-tetrahydro-1H-pyrido[3,4-b]indol-1-yl)-3,5-difluorophenyl)-3-azaspiro[5.5]undec-8-en-3-yl)-2-oxoethyl)-2-(2,6-dioxopiperidin-3-yl)-6,7-dihydropyrrolo[3,4-f]isoindole-1,3(2H,5H)-dione] belongs 10 to 100 nM.

For orientation: DC50 means the midpoint of the concentration-degradation curve.
